Consider 35 compounds from patent US20240383908A1, “SYNTHESIS AND APPLICATION OF PHOSPHATASE DEGRADER” (HINOVA PHARMACEUTICALS INC., priority 2021, published 2024).

This assay addresses T1, SHP2 protein (Homo sapiens, UniProt Q06124).
T1 sequence (Q06124 1-593): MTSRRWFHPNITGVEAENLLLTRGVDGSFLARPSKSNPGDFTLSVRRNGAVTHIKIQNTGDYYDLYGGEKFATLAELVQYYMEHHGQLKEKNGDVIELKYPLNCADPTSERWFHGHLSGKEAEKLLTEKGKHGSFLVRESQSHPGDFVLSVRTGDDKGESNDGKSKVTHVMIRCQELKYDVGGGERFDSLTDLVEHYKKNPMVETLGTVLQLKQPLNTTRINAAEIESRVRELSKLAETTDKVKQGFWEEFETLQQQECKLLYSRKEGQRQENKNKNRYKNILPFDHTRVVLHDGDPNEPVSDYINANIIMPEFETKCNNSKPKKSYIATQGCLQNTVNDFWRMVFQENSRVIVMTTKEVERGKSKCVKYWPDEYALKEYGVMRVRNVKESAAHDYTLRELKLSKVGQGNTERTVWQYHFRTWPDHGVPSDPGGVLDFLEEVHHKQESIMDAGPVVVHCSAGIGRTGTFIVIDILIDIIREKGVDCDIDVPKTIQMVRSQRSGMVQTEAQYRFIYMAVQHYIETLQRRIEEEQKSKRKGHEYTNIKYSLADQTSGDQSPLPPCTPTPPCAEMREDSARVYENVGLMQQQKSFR
In words: Degradation activity on SHP2 protein in MV-411 cells (Western blot, DC50). The class given is cell-based. Details: endogenous in cells. The settings on record: MV411 cells, 24 hours, read-out: Degradation activity for differenct cell lines MV411 (DC50). The procedure, abridged:
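Western blot of SHP2 (GAPDH loading control, 30 μg protein/lane) in lysates of MV-411 cells exposed 24 h to final compound concentrations of 100, 10, 3, 1, 0.3 and 0.1 nM (0.1% DMSO). Degradation relative to DMSO set at 100%; DC50 derived by curve fitting.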
`C[C@@H]1OCC2(CCN(c3cnc(Sc4cccc(NC(=O)CCCCCCCN5CC6(CCN(Cc7ccc(COc8cccc9c8CN(C8CCC(=O)NC8=O)C9=O)cc7)C6)C5)c4)cn3)CC2)[C@@H]1N` (some centres unmarked) [Compound 113]: the DC50 – broadly, the midpoint of the concentration-degradation curve – is above 1000 nM. To `CC1(N)CCN(c2cnc(Sc3cccc(NC(=O)CCCCCCCN4CC5(C4)CN(C(=O)/C=C/C(=O)NCc4ccc6c(c4)CN(C4CCC(=O)NC4=O)C6=O)C5)c3)cn2)CC1` (centres unmarked) [Compound 114] belongs above 1000 nM; to `Cc1ncsc1-c1ccc([C@H](C)NC(=O)[C@@H]2C[C@@H](O)CN2C(=O)[C@@H](NC(=O)/C=C/C(=O)N2CC3(CN(CCCCCCCC(=O)Nc4cccc(Sc5cnc(N6CCC(C)(N)CC6)cn5)c4)C3)C2)C(C)(C)C)cc1` [Compound 115], above 1000 nM. `Cc1ncsc1-c1ccc([C@H](C)NC(=O)[C@@H]2C[C@@H](O)CN2C(=O)[C@@H](NC(=O)/C=C/C(=O)N2CCC3(CN(CCCCCCC(=O)Nc4cccc(Sc5cnc(N6CCC(C)(N)CC6)cn5)c4)C3)C2)C(C)(C)C)cc1` [Compound 116]: the DC50 is above 1000 nM. Take `CC1(N)CCN(c2cnc(Sc3cccc(NC(=O)CCCCCCN4CC5(CCN(C(=O)/C=C/C(=O)NCc6ccc7c(c6)CN(C6CCC(=O)NC6=O)C7=O)C5)C4)c3)cn2)CC1` (centres unmarked) [Compound 117]: the DC50 is above 1000 nM. On to `Cc1ncsc1-c1ccc([C@H](C)NC(=O)[C@@H]2C[C@@H](O)CN2C(=O)[C@@H](NC(=O)c2ccc(N3CC4CCC(C3)N4CCCCCCCCC(=O)Nc3cccc(Sc4cnc(N5CCC(C)(N)CC5)cn4)c3)nn2)C(C)(C)C)cc1` [Compound 118], for which the DC50 is 100 to 1000 nM. To `Cc1ncsc1-c1ccc([C@H](C)NC(=O)[C@@H]2C[C@@H](O)CN2C(=O)[C@@H](NC(=O)c2ccc(N3CCC4(CN(CCCCCOCC(=O)Nc5cccc(Sc6cnc(N7CCC8(CC7)CO[C@@H](C)[C@H]8N)cn6)c5)C4)C3)nn2)C(C)(C)C)cc1` [Compound 120] belongs below 100 nM; to `C[C@@H]1OCC2(CCN(c3cnc(Sc4cccc(NC(=O)COCCCCCN5CC6(CCN(c7ccc(C(=O)NCc8ccc9c(c8)CN(C8CCC(=O)NC8=O)C9=O)nn7)C6)C5)c4)cn3)CC2)[C@@H]1N` (some centres unmarked) [Compound 121], below 100 nM; to `Cc1ncsc1-c1ccc([C@H](C)NC(=O)[C@@H]2C[C@@H](O)CN2C(=O)[C@@H](NC(=O)c2ccc(N3CCC4(CN(CCCCCOCC(=O)Nc5ccc(Sc6cnc(N7CCC(N)(CF)CC7)cn6)cc5)C4)C3)nn2)C(C)(C)C)cc1` [Compound 122], below 100 nM. For `NC1(CF)CCN(c2cnc(Sc3ccc(NC(=O)COCCCCCN4CC5(CCN(c6ccc(C(=O)NCc7ccc8c(c7)CN(C7CCC(=O)NC7=O)C8=O)nn6)C5)C4)cc3)cn2)CC1` (centres unmarked) [Compound 123], the DC50 is 100 to 1000 nM.

Take `CC1(N)CCN(c2cnc(Sc3cccc(NC(=O)COCCCCCN4CC5(CCN(c6ccc(C(=O)NCc7ccc8c(c7)CN(C7CCC(=O)NC7=O)C8=O)nn6)C5)C4)c3)cn2)CC1` (centres unmarked) [Compound 124]: the DC50 is below 100 nM. To `CC1(N)CCN(c2cnc(Sc3cccc(NC(=O)CCCCCCC(=O)N4CC5(CN(C(=O)/C=C/C(=O)NCc6ccc7c(c6)CN(C6CCC(=O)NC6=O)C7=O)C5)C4)c3)cn2)CC1` (centres unmarked) [Compound 125] belongs above 1000 nM; to `Cc1ncsc1-c1ccc([C@H](C)NC(=O)[C@@H]2C[C@@H](O)CN2C(=O)[C@@H](NC(=O)[C@@H]2C[C@H]2C(=O)N2CCC3(CN(CCCCCCC(=O)Nc4cccc(Sc5cnc(N6CCC(C)(N)CC6)cn5)c4)C3)C2)C(C)(C)C)cc1` [Compound 126], 100 to 1000 nM; to `CC1(N)CCN(c2cnc(Sc3cccc(NC(=O)CCCCCCN4CC5(CCN(C(=O)[C@@H]6C[C@H]6C(=O)NCc6ccc7c(c6)CN(C6CCC(=O)NC6=O)C7=O)C5)C4)c3)cn2)CC1` (some centres unmarked) [Compound 127], 100 to 1000 nM. With `CC1(N)CCN(c2cnc(Sc3cccc(NC(=O)CCCCCCCN4CC5(CC(n6cc(C(=O)NCc7ccc8c(c7)CN(C7CCC(=O)NC7=O)C8=O)cn6)C5)C4)c3)cn2)CC1` (centres unmarked) [Compound 128], the DC50 was below 100 nM. Regarding `NC1(CF)CCN(c2cnc(Sc3ccc(NC(=O)CCCCN4CC5(CCN(c6ncc(C(=O)NCc7ccc8c(c7)CN(C7CCC(=O)NC7=O)C8=O)cn6)C5)C4)cc3)cn2)CC1` (centres unmarked) [Compound 129], the DC50 is above 1000 nM.

With `Cc1ncsc1-c1ccc([C@H](C)NC(=O)[C@@H]2C[C@@H](O)CN2C(=O)[C@@H](NC(=O)[C@@H]2C[C@H]2C(=O)N2CCC3(CN(C(=O)CCCCCC(=O)Nc4cccc(Sc5cnc(N6CCC(C)(N)CC6)cn5)c4)C3)C2)C(C)(C)C)cc1` [Compound 130], the DC50 is below 100 nM.

In the case of `CC1(N)CCN(c2cnc(Sc3cccc(NC(=O)CCCCCC(=O)N4CC5(CCN(C(=O)[C@@H]6C[C@H]6C(=O)NCc6ccc7c(c6)CN(C6CCC(=O)NC6=O)C7=O)C5)C4)c3)cn2)CC1` (some centres unmarked) [Compound 131], the DC50 was 100 to 1000 nM. On to `C[C@@H]1OCC2(CCN(c3cnc(Sc4cccc(NC(=O)CCN5CC6(CCN(c7ccc(COc8cccc9c8CN(C8CCC(=O)NC8=O)C9=O)nn7)C6)C5)c4)cn3)CC2)[C@@H]1N` (some centres unmarked) [Compound 132], for which the DC50 is below 100 nM. To `CC1(N)CCN(c2cnc(Sc3cccc(NC(=O)CCN4CC5(CCN(c6ccc(COc7cccc8c7CN(C7CCC(=O)NC7=O)C8=O)nn6)C5)C4)c3)cn2)CC1` (centres unmarked) [Compound 133] belongs above 1000 nM; to `CC1(N)CCN(c2cnc(Sc3cccc(NC(=O)CCCCCCC(=O)N4CC5(CCN(c6ccc(C(=O)NCc7ccc8c(c7)CN(C7CCC(=O)NC7=O)C8=O)nn6)C5)C4)c3)cn2)CC1` (centres unmarked) [Compound 134], 100 to 1000 nM; to `NC1(CF)CCN(c2cnc(Sc3cccc(NC(=O)CCCCCCCO[C@H]4CCN(c5ccc(C(=O)NCc6ccc7c(c6)CN(C6CCC(=O)NC6=O)C7=O)nn5)C4)c3)cn2)CC1` (some centres unmarked) [Compound 135], below 100 nM. The result for `CN[C@H](C)C(=O)N[C@@H](C(=O)N1C[C@@H](NC(=O)c2cnc(N3CCC4(CN(CCCCC(=O)Nc5cccc(Sc6cnc(N7CCC(N)(CF)CC7)cn6)c5)C4)C3)nc2)C[C@@H]1C(=O)Nc1c(F)cccc1F)C(C)(C)C` [Compound 136] reads above 1000 nM. To `NC1(CF)CCN(c2cnc(Sc3cccc(NC(=O)CCCCN4CC5(CCN(c6ccc(C(=O)NCc7ccc8c(c7)CN(C7CCC(=O)NC7=O)C8=O)nn6)C5)C4)c3)cn2)CC1` (centres unmarked) [Compound 137] belongs above 1000 nM. On to `CN[C@H](C)C(=O)N[C@@H](C(=O)N1C[C@@H](NC(=O)c2ccc(N3CC(C)N(CCCCCCCCC(=O)Nc4cccc(Sc5cnc(N6CCC(C)(N)CC6)cn5)c4)C(C)C3)nn2)C[C@@H]1C(=O)Nc1c(F)cccc1F)C(C)(C)C` (some centres unmarked) [Compound 139], for which the DC50 was above 1000 nM.

Take `CN[C@H](C)C(=O)N[C@@H](C(=O)N1C[C@@H](NC(=O)c2ccc(N3CC4CCC(C3)N4CCCCCCCCC(=O)Nc3cccc(Sc4cnc(N5CCC(N)C(F)C5)cn4)c3)nn2)C[C@@H]1C(=O)Nc1c(F)cccc1F)C(C)(C)C` (some centres unmarked) [Compound 142]: the DC50 is above 1000 nM. Take `NC1CCN(c2cnc(Sc3cccc(NC(=O)CCCCCCCCN4C5CCC4CN(c4ccc(C(=O)NCc6ccc7c(c6)CN(C6CCC(=O)NC6=O)C7=O)nn4)C5)c3)cn2)CC1F` (centres unmarked) [Compound 143]: the DC50 is below 100 nM. The result for `Cc1ncsc1-c1ccc([C@H](C)NC(=O)[C@@H]2C[C@@H](O)CN2C(=O)[C@@H](NC(=O)c2ccc(N3CCC4(CN(CCCCC(=O)Nc5cccc(Sc6cnc(N7CCC(C)(N)CC7)cn6)c5)C4)C3)nn2)C(C)(C)C)cc1` [Compound 144] reads 100 to 1000 nM; that for `CC1(N)CCN(c2cnc(Sc3cccc(NC(=O)CCCCN4CC5(CCN(c6ccc(C(=O)NCc7ccc8c(c7)CN(C7CCC(=O)NC7=O)C8=O)nn6)C5)C4)c3)cn2)CC1` (centres unmarked) [Compound 145], below 100 nM.

As to `CC1(N)CCN(c2cnc(Sc3cccc(NC(=O)CCCCCCCCN4C5CCC4CN(c4ccc(C(=O)N6CCN(c7ccc8c(c7)C(=O)N(C7CCC(=O)NC7=O)C8=O)CC6)nn4)C5)c3)cn2)CC1` (centres unmarked) [Compound 148], the DC50 is below 100 nM.

For `CC1(N)CCN(c2cnc(Sc3cccc(NC(=O)CCCCCCCCN4C5CCC4CN(c4ccc(CN6CCN(c7ccc8c(c7)C(=O)N(C7CCC(=O)NC7=O)C8=O)CC6)nn4)C5)c3)cn2)CC1` (centres unmarked) [Compound 149], the DC50 was below 100 nM. Turning to `CC1(N)CCN(c2cnc(Sc3cccc(NC(=O)/C=C/C(=O)N4CC5(CCN(CCCCCCC(=O)NCc6ccc7c(c6)CN(C6CCC(=O)NC6=O)C7=O)C5)C4)c3)cn2)CC1` (centres unmarked) [Compound 150], the 50% degradation concentration (DC50) was above 1000 nM. The result for `CC1(N)CCN(c2cnc(Sc3cccc(NC(=O)/C=C/C(=O)N4CCC5(CN(CCCCCCC(=O)NCc6ccc7c(c6)CN(C6CCC(=O)NC6=O)C7=O)C5)C4)c3)cn2)CC1` (centres unmarked) [Compound 151] reads above 1000 nM; that for `CN(Cc1ccc2c(c1)CN(C1CCC(=O)NC1=O)C2=O)C(=O)c1ccc(N2CCC3(CN(CCCCCCC(=O)Nc4cccc(Sc5cnc(N6CCC(C)(N)CC6)cn5)c4)C3)C2)nn1` (centres unmarked) [Compound 152], below 100 nM; that for `CC1(N)CCN(c2cnc(Sc3cccc(NC(=O)CCCCCCCOC4CCN(c5ccc(C(=O)NCc6ccc7c(c6)CN(C6CCC(=O)NC6=O)C7=O)nn5)CC4(F)F)c3)cn2)CC1` (centres unmarked) [Compound 153], below 100 nM.
